# Source: ChEMBL document CHEMBL5620408, “Discovery of novel diarypyrimidine derivatives bearing six-membered non-aromatic heterocycles as potent HIV-1 NNRTIs with improved anti-resistance and drug-like profiles” (Eur J Med Chem, 2023)
# Assays:
# [1] = Cytotoxicity against human MT4 cells assessed as reduction in cell viability by MTT assay; assay type: toxicity, cell-based
# [2] = test system: Human immunodeficiency virus 1; test: Antiviral activity against HIV1 harboring Y181C mutant infected in MT4 cells; assay type: functional, organism-based; details: Human immunodeficiency virus 1, MT4
# [3] = test system: Human immunodeficiency virus 1; test: Antiviral activity against HIV1 harboring K103N mutant infected in MT4 cells; assay type: functional, organism-based; details: Human immunodeficiency virus 1, MT4
# [4] = target: Human immunodeficiency virus type 1 reverse transcriptase (Human immunodeficiency virus 1, UniProt Q72547); test: Inhibition of wild type HIV-1 reverse transcriptase
# [5] = test system: Human immunodeficiency virus 1; test: microbe, parasite or virus in culture; details: Human immunodeficiency virus 1, IIIB, MT4
# Description: Antiviral activity against HIV1 IIIB infected in MT-4 cells assessed as viral induced cytopathic effect by MTT assay
# [6] = test system: Human immunodeficiency virus 1; test: Antiviral activity against HIV1 harboring E138K mutant infected in MT4 cells; assay type: functional, organism-based; details: Human immunodeficiency virus 1, MT4
# [7] = Selectivity index, ratio of CC50 for human MT4 cells to EC50 for antiviral activity against HIV IIIB
# [8] = test system: Human immunodeficiency virus 1; test: Antiviral activity against HIV1 harboring L100I mutant infected in MT4 cells; assay type: functional, organism-based; details: Human immunodeficiency virus 1, MT4
# [9] = test system: Human immunodeficiency virus 1; test: Antiviral activity against HIV1 harboring F227L/V106A double mutant infected in MT4 cells; assay type: functional, organism-based; details: Human immunodeficiency virus 1, MT4
# [10] = test system: Human immunodeficiency virus 1; test: microbe, parasite or virus in culture; details: Human immunodeficiency virus 1, RES056, MT4
# Description: Antiviral activity against HIV1 RES056 infected in MT-4 cells assessed as viral induced cytopathic effect by MTT assay
# [11] = Selectivity index, ratio of CC50 for human MT4 cells to EC50 for antiviral activity against HIV RES056
# [12] = test system: Human immunodeficiency virus 1; test: Antiviral activity against HIV1 harboring Y188L mutant infected in MT4 cells; assay type: functional, organism-based; details: Human immunodeficiency virus 1, MT4
# [13] = test system: Human immunodeficiency virus 1; test: Antiviral activity against HIV1 NL4-3 infected in MT4 cells; assay type: functional, organism-based; details: Human immunodeficiency virus 1, NL4-3, MT4
# MT4 = test: Cytotoxicity against human MT4 cells; assay type: toxicity, cell-based
Structure (SMILES),CC50 [1] [nM],EC50 [2] [nM],EC50 [3] [nM],IC50 [4] [nM],EC50 [5] [nM],EC50 [6] [nM],selectivity ratio [7],EC50 [8] [nM],EC50 [9] [nM],EC50 [10] [nM],selectivity ratio [11],EC50 [12] [nM],EC50 [13] [nM],Activity (MT4)
Cc1cc(/C=C/C#N)cc(C)c1Oc1ccnc(Nc2ccc(N3CCOCC3)c(F)c2)n1,228000,44,5,46,5,25,49600,27,100,840,272,4190,,
Cc1cn([C@H]2C[C@H](N=[N+]=[N-])[C@@H](CO)O2)c(=O)[nH]c1=O [ZIDOVUDINE],> 7480,,,,,,,,,37,,,15.3,Non-Toxic
Cc1cc(/C=C/C#N)cc(C)c1Oc1ccnc(Nc2ccc(N3CCN(S(=O)(=O)N(C)C)CC3)cc2)n1,78100,,,140,8,,10200,,,> 78100,< 1,,28.9,Non-Toxic
Cc1cc(C#N)cc(C)c1Oc1ccnc(Nc2ccc(N3CCN(S(=O)(=O)C4CC4)CC3)c(F)c2)n1,> 239000,,,77,6,,> 40600,,,> 239000,,,8.32,Non-Toxic
Cc1cc(C#N)cc(C)c1Oc1ccnc(Nc2ccc(N3CCN(S(C)(=O)=O)CC3)c(F)c2)n1,7750,,,43,6,,1240,,,> 7750,< 1,,5.74,Non-Toxic
Cc1cc(/C=C/C#N)cc(C)c1Nc1ccnc(Nc2ccc(C#N)cc2)n1 [RILPIVIRINE],,,,430,,,,,,,,,0.6,Non-Toxic
Cc1cc(/C=C/C#N)cc(C)c1Oc1ccnc(Nc2ccc(N3CCN(S(=O)(=O)C(C)C)CC3)cc2)n1,1730,,,130,9,,193,,,> 1730,< 1,,25.5,Non-Toxic
Cc1cc(/C=C/C#N)cc(C)c1Oc1ccnc(Nc2ccc(C3CCN(S(=O)(=O)C(C)C)CC3)cc2)n1,2380,,,130,8,,298,,,> 2380,< 1,,11.9,Non-Toxic
Cc1cc(/C=C/C#N)cc(C)c1Oc1ccnc(Nc2ccc(N3CCN(S(C)(=O)=O)CC3)cc2)n1,2570,960,37,65,5,850,536,370,270,> 2570,< 1,> 2570,1.84,Non-Toxic
CCS(=O)(=O)N1CCN(c2ccc(Nc3nccc(Oc4c(C)cc(C#N)cc4C)n3)cc2F)CC1,> 245000,190,21,58,4,64,> 55100,130,55,> 245000,,> 245000,10.2,Non-Toxic
Cc1cc(/C=C/C#N)cc(C)c1Oc1ccnc(Nc2ccc(C3CCN(S(=O)(=O)C4CC4)CC3)cc2)n1,> 37800,380,20,79,5,51,> 7650,110,57,> 37800,,> 37800,5.95,Non-Toxic
CCS(=O)(=O)N1CCN(c2ccc(Nc3nccc(Oc4c(C)cc(/C=C/C#N)cc4C)n3)cc2)CC1,> 38600,810,48,100,5,85,> 7740,450,240,> 38600,,> 38600,2.18,Non-Toxic
Cc1cc(/C=C/C#N)cc(C)c1Oc1ccnc(Nc2ccc(N3CCN(S(C)(=O)=O)CC3)c(F)c2)n1,3210,30,3,40,2,11,1710,22,34,670,5,> 3210,0.48,Non-Toxic
Cc1cc(/C=C/C#N)cc(C)c1Oc1ccnc(Nc2ccc(N3CCN(S(=O)(=O)C4CC4)CC3)cc2)n1,216000,,,83,6,,37300,,,> 216000,< 1,,6.12,Non-Toxic
Cc1cc(/C=C/C#N)cc(C)c1Oc1ccnc(Nc2ccc(C3CCN(S(=O)(=O)N(C)C)CC3)cc2)n1,6270,,,100,9,,686,,,> 6270,< 1,,24.8,Non-Toxic
Cc1cc(/C=C/C#N)cc(C)c1Oc1ccnc(Nc2ccc(CN3CCN(S(C)(=O)=O)CC3)cc2)n1,,,4,33,,9,,14,210,,,1320,0.79,Non-Toxic
Cc1cc(C#N)cc(C)c1Oc1nc(Nc2ccc(C#N)cc2)nc(N)c1Br [ETRAVIRINE],> 4590,,1,,,,,,25,76,,,,
O=C1Nc2ccc(Cl)cc2[C@@](C#CC2CC2)(C(F)(F)F)O1 [EFAVIRENZ],> 6330,,,,,,,53,,,,250,,
Cc1ccnc2c1NC(=O)c1cccnc1N2C1CC1 [NEVIRAPINE],> 15000,7400,6040,,,,,,> 15000,> 15000,,> 15000,,
Cc1cc(C#N)cc(C)c1Oc1ccnc(Nc2ccc(N3CCN(S(=O)(=O)C(C)C)CC3)c(F)c2)n1,192000,,,140,8,,24500,,,> 192000,< 1,,24.6,Non-Toxic
CCS(=O)(=O)N1CCC(c2ccc(Nc3nccc(Oc4c(C)cc(/C=C/C#N)cc4C)n3)cc2)CC1,> 38600,,,71,5,,> 7360,,,> 38600,,,5.7,Non-Toxic
Cc1cc(/C=C/C#N)cc(C)c1Oc1ccnc(Nc2ccc(N3CC[S+]([O-])CC3)c(F)c2)n1,13300,84,4,27,1,24,9800,34,130,1300,10,5120,,
